From patent US20140315717A1 (priority 2006, published 2014)
Values joined by “and” are separate entries in the source; they are usually repeats but may differ in a detail not shown here. Identical values can stand only once. Like-named read-outs stand apart in the source and are kept apart here.

Key:
Pythium ultimum = Pythium ultimum inoculation of sprayed cotton seedlings; assay type: in vivo; settings: cotton plants contacted with 3,6-DCSA; untreated plants are killed
Procedure: Ten-day old Roundup Ready® Flex Cotton (Event MON 88913; U.S. Publ. 20060059590) seedlings were sprayed with a mixture of Roundup Weather Max® (Monsanto, St. Louis, Mo.) and 3,6-DCSA (BASF). The control plants were sprayed with water only. The cotton seedlings from both treatments were inoculated with Pythium ultimum by dipping seedling into inoculum slurry, 24 hours after the spray application. The positive control plants were neither sprayed nor inoculated with P. P. ultimum. […] Cotton plants treated with Roundup® and DCSA were as healthy as were the plants not inoculated with P. ultimum.

[1] = test system: Root Knot Nematode (RKN; Meloidogyne incognita); assay: Control of cotton root knot nematode in cotton plants (ST474); assay type: in vivo; settings: RKN + DCSA
Procedure: DCSA was unexpectedly found to control gall formation, improve plant height and reduce number of eggs produced by the nematode in cotton plants (ST474) (Table 5). Ten to fourteen days old cotton plants were treated with DCSA at the rate of […], 24 hrs before inoculating them with RKN eggs. […] Plant height, gall rating, and egg counts were measured 45 days after inoculation. The gall rating scale was 0-5 with 0=no visible galling and 5=heavy galling.

soybean plants = assay type: in vivo
Excerpt: (§1) Transgenic and control soybean seeds (cultivars Thorne, NE3001, A3525) were planted into 3.5-inch square plastic pots containing Redi-Earth™ (Scotts-Sierra Horticultural Products Co., Marysville, Ohio). The pots were placed on capillary matting in 35 inch×60 inch fiberglass watering trays for overhead and/or sub-irrigation for the duration of the test period so as to maintain optimum soil moisture for plant growth and were fertilized with Osmocote® (14-14-14 slow release; Scotts-Sierra Horticultural Products Co., Marysville, Ohio) at the rate of 100 gm/cu. ft. to sustain plant growth for the duration of greenhouse trials.
(§2) A 14 hour minimum photoperiod was provided with supplemental light at about 600 μE (micro-Einsteins) as needed. Trials were established in a randomized block design randomized by rate with 4 to 6 replications of each treatment.
(§3) All herbicide applications were made with the track sprayer using a Teejet® 9501E flat fan nozzle (Spraying Systems Co, Wheaton, Ill.) with air pressure set at a minimum of 24 psi (pounds per square inch), or 165 kpa (kilopascals)). The spray nozzle was kept at a height of about 16 inches above the top of plant material for spraying. The spray volume was 10 gallons per acre or 93 liters per hectare. Applications were made when plants had reached V-3 stage.
For this example, the plants were grown as described in the above example. Transgenic and non transgenic soybean plants carrying the DMO gene in their genome were either treated with Paraquat (Gramoxone®; Syngenta) to create oxidative stress or with dicamba followed by Paraquat at V3 stage. The dicamba rate was 1 lb/acre or 1120 g ae/ha. Paraquat was applied at 30, 70, or 200 g ae/ha. Plants were then evaluated for paraquat injury by visually assessing injury at a particular day after treatment (DAT) for injury on a scale of 0 to 100 percent relative to untreated control plants, with zero representing “no” injury and 100% representing “complete” injury or death. Data were collected and analyzed using suitable statistical methods.
In another experiment, the effect of externally applied DCSA was tested for its benefit in protecting soybean plants from oxidative stress injury caused by Paraquat. Different amounts of DCSA were applied 24 hrs before applying Paraquat to test any correlation between the amount of DCSA applied and the extent of protection obtained from oxidative stress measured in terms of reduction in % injury as described above. Different levels of dicamba were also applied separately to test the same hypothesis.

[2] = test system: PR-2, i.e., β-1,3-glucanase; assay: Induction of PR-2 mRNA (northern blot) in DMO soybean after spraying; assay type: in vivo; settings: for induction of PR2 at various rates: 0.25, 0.5 and 1 lb/acre, 24 hrs after treatment, two independent transgenic soybean lines, FIG. 2
Excerpt: as §1, §2, §3
Leaf samples were harvested after 0, 3, 8, 24, 48, 72 hrs after treatment (HAT) and frozen for further analysis. […] RNA was extracted and analyzed by northern blot analysis using PR-2, i.e., β-1,3-glucanase as a probe.

Verticillium dahliae = assay: Protection of cotton against Verticillium wilt, seedling dipping inoculation; assay type: in vivo; settings: for Plant survival rating (out of 10) / Severity rating (1-9): cotton ST6611, DCSA 1 lb/A, glyphosate 0.75 lb/A 24 hours before inoculation; for Severity rating (1-9): 1 healthy, 9 dead
Excerpt: DCSA was unexpectedly found to provide protection to cotton plants against Verticillium dahliae, causal agent of cotton wilt disease (Table 6). Cotton plants of the variety ST6611, BOLLGARD 2, ROUNDUP READY FLEX, were inoculated with a moderate isolate (DPL) or a virulent isolate (King) of Verticillium by a seedling dipping method. Seedlings at the first true leaf stage were taken out from the pots, one inch of roots were cut off, seedlings were dipped in a spore slurry for one minute, and then transplanted back in the pots. These strains were isolated and provided by Dr. Terry Wheeler (Texas A&M University, TX USA). DCSA was applied at the rate of 1 lb/A and glyphosate (ROUNDUP WEATHERMAX, Monsanto) at the rate of 0.75 lb/A 24 hours before inoculation. Protection against Verticillium was measured on a disease severity scale of 1-9: 1 being healthy and 9 being dead because of disease, and also was measured as the number of plants that survived out of 10 inoculated plants.

cotton plants = assay: Paraquat (Gramoxone) oxidative stress injury in cotton, visual % injury; assay type: in vivo; settings: for Percentage injury: 2 DAT, DCSA where applied 1 lb/acre 24 hours before
Procedure: Four different cotton cultivars as indicated in Table 3 were grown in 4-inch pots for two weeks. These cotton plants were either sprayed with DCSA (BASF) at the 1 lb/A rate, or unsprayed (no DCSA application, as control). Experimental plants (treated with DCSA and untreated) were sprayed with Paraquat (Gramoxone®; Syngenta) at 30 gm/ha, 70 gm/ha, and 100 gm/ha rates, 24 hours after the application of DCSA, to simulate oxidative stress. […] The same experiment was repeated at two different growth stages of cotton (2 nodes stage and 5 nodes stage).

[3] = test system: Xanthomonas campestris pv. malvacearum; assay: Bacterial blight tooth pick inoculation of sprayed cotton plants; assay type: in vivo; settings: two-week old cotton, DCSA sprayed about 24 hours before inoculation, FIG. 4
Procedure: In this example, two-week old cotton plants were sprayed with DCSA while control plants received spray application of water only. The plants were inoculated with bacterial blight pathogen (Xanthomonas campestris pv. malvacearum) about 24 hours after the DCSA spray application using a tooth pick inoculation method. As shown in the FIG. 4, the cotton plants inoculated with the bacterial pathogen but not sprayed with DCSA developed necrotic spots, typical symptoms of bacterial blight. […] The results of this experiment indicate that DCSA application reduced bacterial infection on cotton plants when inoculated with bacterial pathogen 24 hours after the DCSA spray.

soybean = settings: DMO transgenic soybean, dicamba 1.5 lb ae/acre Pre and/or Post (V3-4), in 4/5 events and 13/15 treatments, FIG. 6
Procedure: The yield enhancing-benefit of DSCA was tested by growing non-transgenic and transgenic plants and applying dicamba to transgenic plants and harvesting the seeds. Non-transgenic and transgenic soybean seeds were planted near the beginning of the growing season in several locations at the time of best possible growth conditions such as soil moisture, temperature, and seeding depth. […] In all, 240 plots were planted at 6 locations (40 per location).
Four non-transgenic border rows were planted all around the trial using a known commercial line such as A3525. Optimum production and management practices known in the art were followed. Maximum pest control and disease control was practiced as needed to prevent confounding effects of dicamba applications. The field was irrigated as needed according to standard practices.

[4] = individual cotton plants 1-8, DCSA 24 hrs before inoculation, 45 days after inoculation
[5] = Verticillium isolate DPL (moderate)
[6] = Verticillium isolate King (virulent)

With `O=C(O)c1c(Cl)ccc(Cl)c1O` [DCSA, 3,6-dichloro salicylic acid] the “survival of cotton plants after inoculation with Pythium ultimum” value (Pythium ultimum) was “survive inoculation”, the “RKN Gall Rating (0-5)” value ([1]; individual cotton plants 1-8, 45 days after inoculation, 0=no visible galling, 5=heavy galling) was 0 (4×) and 2 and 1 (3×) and the “Egg Count/pot” value [1, 4] was 5,200 and 1,800 and 2,200. The “Plant Height” value [1, 4] was 25.4 cm (3×) and 22.2 cm and 17.8 cm and 14.0 cm and 15.9 cm and 12.7 cm, the “Plant Height, Mean” value ([1]; mean of 8 cotton plants, 45 days after inoculation) was 19.8 cm and the “RKN Gall Rating (0-5), Mean” value ([1]; mean of 8 cotton plants, 45 days after inoculation, 0=no visible galling, 5=heavy galling) was 0.6. The “% injury at 5 DAT” value (soybean plants; event 469-13-19, 280 g/ha of Dicamba or DCSA followed by 100 g ae/ha of paraquat) was 50.83%, the “% injury at 5 DAT” value (soybean plants; event 469-13-19, 561 g/ha of Dicamba or DCSA followed by 100 g ae/ha of paraquat) was 48.33% and the “% injury at 5 DAT” value (soybean plants; event 469-13-19, 1120 g/ha of Dicamba or DCSA followed by 100 g ae/ha of paraquat) was 43.33%. For the same molecule, the “% injury at 5 DAT” value (soybean plants; in vivo) was 66.67% and 53.33% and 49.17%, the “protection against oxidative stress caused by subsequently applied paraquat” value (soybean plants; transgenic soybean, applied 24 hrs before Paraquat, reduction in injury increased with rate) was “provided protection against oxidative stress” and the “induction of PR2 at various rates” value [2] was “induction of PR2”. The “Plant survival rating (out of 10)” value (Verticillium dahliae; [5]) was 10, the “Severity rating (1-9)” value (Verticillium dahliae; [5]) was 1 and the “Plant survival rating (out of 10)” value (Verticillium dahliae; [6]) was 10. The “Severity rating (1-9)” value (Verticillium dahliae; [6]) was 2, the “protection against Verticillium” value (Verticillium dahliae; cotton, isolates DPL and King, DCSA 1 lb/A 24 hours before inoculation) was “provided protection against both moderate and strong isolates of Verticillium dahliae” and the Gramoxone injury (cotton plants; four varieties of RR cotton pretreated with DCSA (24 hours), two nodes stage and 5 nodes stage) was “reduced significantly”. The bacterial blight symptoms [3] was “only localized lesions (HR response) and no increase in bacterial blight symptoms”.

`COc1c(Cl)ccc(Cl)c1C(=O)O` [Dicamba, 3,6-dichloro-2-methoxybenzoic acid] was tested, and the “% injury at 5 DAT” value (soybean plants; in vivo) was 65.00% and 54.17% and 45.83% and 51.67% and 40.83%, the Paraquat injury (soybean plants; in vivo) was “significantly reduced Paraquat injury” and the “protection against oxidative stress caused by subsequently applied paraquat” value (soybean plants; in vivo) was “provided protection against oxidative stress”. The “induction of PR2 at various rates” value [2] was “induction of PR2”, the “induction of PR2 at various time points” value ([2]; DMO soybean, dicamba (Clarity) 1 lb/acre at Post-V3, leaf samples 0-72 HAT, FIG. 1) was “induction of PR2” and the “yield relative to unsprayed controls” value (soybean) was “an increase or equivalent yield to unsprayed controls”.

For `O=C(O)CNCP(=O)(O)O` [Glyphosate, N-phosphonomethylglycine, reference compound], the “Plant survival rating (out of 10)” value (Verticillium dahliae; [5]) was 10, the “Severity rating (1-9)” value (Verticillium dahliae; [5]) was 2 and the “Plant survival rating (out of 10)” value (Verticillium dahliae; [6]) was 10. For the same molecule, the “Severity rating (1-9)” value (Verticillium dahliae; [6]) was 3.5.

For `C[n+]1ccc(-c2cc[n+](C)cc2)cc1` [Paraquat], the “% injury” value (soybean plants; N3001 (non-transgenic) soybean, paraquat 200 g ae/ha, V-3 stage, 4 DAT) was 75%, the “% injury at 5 DAT Paraquat alone control” value (soybean plants; transgenic event 462-1-21, paraquat 100 g ae/ha alone) was 75.83% and the “% injury at 5 DAT Paraquat alone control” value (soybean plants; transgenic event 469-13-19, paraquat 100 g ae/ha alone) was 77.50%. The injury rate (soybean plants; transgenic soybean plants contacted with Paraquat alone) was “about 75%”, the Percentage injury (cotton plants; cotton ST3273B2RF, Gramoxone 30 g a.i./ha) was 35% and the Percentage injury (cotton plants; cotton ST3273B2RF, Gramoxone 70 g a.i./ha) was 50%. For the same molecule, the Percentage injury (cotton plants; cotton ST3273B2RF, Gramoxone 100 g a.i./ha) was 50%, the Percentage injury (cotton plants; cotton ST4575BR, Gramoxone 100 g a.i./ha) was 65% and the Percentage injury (cotton plants; cotton ST4646B2RF, Gramoxone 100 g a.i./ha) was 70%. For the same molecule, the Percentage injury (cotton plants; cotton ST6622RF, Gramoxone 70 g a.i./ha) was 50% and the Percentage injury (cotton plants; cotton ST6622RF, Gramoxone 100 g a.i./ha) was 70%.
